Tested on: hypertensive subjects
Assay: Seated automated office blood pressure (AOBP) in randomized, placebo-controlled, dose-ranging study
Assay type: in vivo, human
Set-up: Difference from placebo in change in blood pressure: unit not given here
Conditions: for Seated AOBP DBP change from baseline (CFB), Mean (SD) / Seated AOBP DBP, Mean (SD) / Seated AOBP SBP change from baseline (CFB), Mean (SD) / Seated AOBP SBP, Mean (SD) / LSM Δ with Placebo, seated AOBP DBP (MMRM) / Modelled (MMRM) LSM (SEM) change from baseline, seated AOBP DBP / LSM Δ from Placebo, change from baseline in seated AOBP SBP (MMRM) / Modelled (MMRM) LSM (SEM) change from baseline, seated AOBP SBP / Subjects with seated AOBP SBP/DBP ≤130/80 mmHg: No / Subjects with seated AOBP SBP/DBP ≤130/80 mmHg: Yes: FAS
Method: A randomized, double-blinded, placebo-controlled, dose-ranging, multicenter study was conducted to evaluate the effect of orally administered Compound A HBr on blood pressure for the treatment of hypertension in male and female subjects ≥18 years of age.
The study consists of two parts. For enrollment into Part 1 of the study, a subject's value of plasma renin activity (PRA) must be ≤1 ng/mL/h based on morning measurement. If the value of PRA >1 ng/mL/h based on morning measurement, then subjects may be eligible to enter Part 2 of the study.
For Part 1, 163 enrolled subjects ≥18 years of age were randomized into 6 equal treatment groups (1:1:1:1:1:1) to 12.5 mg BID, 25 mg BID, 12.5 mg QD, 50 mg QD, 100 mg QD, or placebo. After a review of interim clinical data, the 2 lowest dose levels (12.5 mg QD and 12.5 mg BID) were stopped for future randomization due to a lack of consistent meaningful reduction of blood pressure, but the patients randomized to that point remained in the study through completion. Thus, after the review of interim clinical data, subjects were randomized into 4 equal treatment groups (1:1:1:1) to 25 mg BID, 50 mg QD, 100 mg QD, or placebo.
For Part 2, 36 enrolled subjects ≥18 years of age were randomized (5:1) to either 100 mg QD Compound A HBr or placebo such that the Compound A HBr treatment group consisted of approximately 30 subjects and the placebo treatment group will consist of approximately 6 subjects.
Subjects orally administered the assigned study drug (Compound A HBr or placebo) according to the assigned dosing regimen for 8 weeks beginning on Study Day 1. All subjects in Part 1 (regardless of dosing group) received BID dosing to preserve the integrity of the blind; active drug is administered as the morning dose for all QD dose groups. Subjects returned to the research facility or were seen by the clinical investigator or approved home health care professional at the end of Study Weeks 1, 2, 3, 4, 5, 6, 7, and 8 (±2 days) for protocol-defined efficacy and safety assessments and procedures, assessment of adverse events (AEs), and confirmation of compliance with study drug usage. Subjects also completed a telephone visit and blood pressure (BP) check at home approximately 3 days post last dose of study drug. Subjects attended up to 14 full clinic visits, including a pre-Screening visit, a Screening/start of Placebo Run-in visit, a second visit during Placebo Run-in, a clinic visit to initiate the ABPM procedure, a Randomization visit, 8 weekly visits during double-blind treatment, and an end-of-study visit scheduled 4 weeks after the last study treatment for final efficacy and safety assessments.
An automated oscillometric sphygmomanometer device was used to measure the subjects' systolic and diastolic blood pressure in office after approximately 5 minutes of rest in the seated position.
The primary endpoint is the change in office-measured (mean of last 2 of 5 unattended measurements using an automated oscillometric sphygmomanometer device after approximately 5 minutes of rest in the seated position) systolic blood pressure (SBP) from baseline to the end of Study Week 8.
Secondary endpoints of this study were: • (a) Change in 24-hour ambulatory blood pressure monitoring (ABPM) parameters (systolic and diastolic) from baseline to the end of Study Week 7. • (b) Change in office-measured SBP from baseline to the end of Study Weeks 1, 2, 3, 4, 5, 6, and 7. • (c) Change in office-measured diastolic blood pressure (DBP) from baseline to the end of Study Weeks 1, 2, 3, 4, 5, 6, 7, and 8. • (d) Proportion of subjects who achieve office-measured BP of ≤130/80 mm Hg by the end of Study Week 8.

## CC(=O)N[C@H]1CC[C@H](NC(=O)CN2CCN(c3nncc(-c4ccc(C)cc4)n3)CC2)CC1 [Compound A HBr]
12.5 mg BID, BMI 25-30
  Difference from placebo in change in blood pressure: −3.5
12.5 mg BID, BMI >30
  Difference from placebo in change in blood pressure: −10.1
12.5 mg BID, Thiazide No
  Difference from placebo in change in blood pressure: −1.4
12.5 mg BID, Thiazide Yes
  Difference from placebo in change in blood pressure: −10.6
12.5 mg BID, Week 1, Part 1
  Seated AOBP DBP change from baseline (CFB), Mean (SD): −5.95 (6.17) mmHg
  Seated AOBP DBP, Mean (SD): 75.59 (8.32) mmHg
  Seated AOBP SBP change from baseline (CFB), Mean (SD): −8.89 (11.51) mmHg
  Seated AOBP SBP, Mean (SD): 135.68 (14.48) mmHg
12.5 mg BID, Week 2, Part 1
  Seated AOBP DBP change from baseline (CFB), Mean (SD): −7.32 (9.14) mmHg
  Seated AOBP DBP, Mean (SD): 74.23 (10.15) mmHg
  Seated AOBP SBP change from baseline (CFB), Mean (SD): −11.98 (13.02) mmHg
  Seated AOBP SBP, Mean (SD): 132.59 (14.70) mmHg
12.5 mg BID, Week 3, Part 1
  Seated AOBP DBP change from baseline (CFB), Mean (SD): −0.93 (7.51) mmHg
  Seated AOBP DBP, Mean (SD): 79.95 (9.17) mmHg
  Seated AOBP SBP change from baseline (CFB), Mean (SD): −5.80 (9.60) mmHg
  Seated AOBP SBP, Mean (SD): 137.70 (15.37) mmHg
12.5 mg BID, Week 4, Part 1
  LSM Δ with Placebo, seated AOBP DBP (MMRM): −4.48 mmHg
  Modelled (MMRM) LSM (SEM) change from baseline, seated AOBP DBP: −5.02 (1.67) mmHg
  Seated AOBP DBP change from baseline (CFB), Mean (SD): −4.18 (10.21) mmHg
  Seated AOBP DBP, Mean (SD): 75.79 (10.69) mmHg
  Seated AOBP SBP change from baseline (CFB), Mean (SD): −10.71 (12.27) mmHg
  Seated AOBP SBP, Mean (SD): 132.95 (15.79) mmHg
12.5 mg BID, Week 5, Part 1
  Seated AOBP DBP change from baseline (CFB), Mean (SD): −7.00 (7.81) mmHg
  Seated AOBP DBP, Mean (SD): 73.50 (10.13) mmHg
  Seated AOBP SBP change from baseline (CFB), Mean (SD): −12.53 (13.34) mmHg
  Seated AOBP SBP, Mean (SD): 131.44 (13.13) mmHg
12.5 mg BID, Week 6, Part 1
  Seated AOBP DBP change from baseline (CFB), Mean (SD): −6.47 (6.39) mmHg
  Seated AOBP DBP, Mean (SD): 74.95 (10.29) mmHg
  Seated AOBP SBP change from baseline (CFB), Mean (SD): −14.00 (14.80) mmHg
  Seated AOBP SBP, Mean (SD): 129.79 (15.24) mmHg
12.5 mg BID, Week 7, Part 1
  Seated AOBP DBP change from baseline (CFB), Mean (SD): −5.76 (7.62) mmHg
  Seated AOBP DBP, Mean (SD): 74.21 (9.64) mmHg
  Seated AOBP SBP change from baseline (CFB), Mean (SD): −11.76 (13.06) mmHg
  Seated AOBP SBP, Mean (SD): 131.89 (11.93) mmHg
12.5 mg BID, Week 8, Part 1
  LSM Δ from Placebo, change from baseline in seated AOBP SBP (MMRM): −7.2 mmHg
  LSM Δ with Placebo, seated AOBP DBP (MMRM): −3.84 mmHg
  Modelled (MMRM) LSM (SEM) change from baseline, seated AOBP DBP: −5.47 (2.02) mmHg
  Modelled (MMRM) LSM (SEM) change from baseline, seated AOBP SBP: −11.30 (3.15) mmHg
  Seated AOBP DBP change from baseline (CFB), Mean (SD): −5.84 (8.78) mmHg
  Seated AOBP DBP, Mean (SD): 75.21 (10.07) mmHg
  Seated AOBP SBP change from baseline (CFB), Mean (SD): −13.79 (17.70) mmHg
  Seated AOBP SBP, Mean (SD): 131.89 (12.93) mmHg
  Subjects with seated AOBP SBP/DBP ≤130/80 mmHg: No: 15 (68.2) n (%)
  Subjects with seated AOBP SBP/DBP ≤130/80 mmHg: Yes: 7 (31.8) n (%)
12.5 mg QD, BMI 25-30
  Difference from placebo in change in blood pressure: −.14
12.5 mg QD, BMI >30
  Difference from placebo in change in blood pressure: −2.5
12.5 mg QD, Baseline BPsys Low tertile
  Difference from placebo in change in blood pressure: −10.7
12.5 mg QD, Thiazide No
  Difference from placebo in change in blood pressure: 2.6
12.5 mg QD, Week 1, Part 1
  Seated AOBP DBP change from baseline (CFB), Mean (SD): 2.87 (12.31) mmHg
  Seated AOBP DBP, Mean (SD): 85.26 (13.88) mmHg
  Seated AOBP SBP change from baseline (CFB), Mean (SD): −5.65 (13.96) mmHg
  Seated AOBP SBP, Mean (SD): 141.43 (15.98) mmHg
12.5 mg QD, Week 2, Part 1
  Seated AOBP DBP change from baseline (CFB), Mean (SD): 0.68 (8.89) mmHg
  Seated AOBP DBP, Mean (SD): 81.23 (9.21) mmHg
  Seated AOBP SBP change from baseline (CFB), Mean (SD): −1.86 (16.36) mmHg
  Seated AOBP SBP, Mean (SD): 143.73 (17.32) mmHg
12.5 mg QD, Week 3, Part 1
  Seated AOBP DBP change from baseline (CFB), Mean (SD): −1.20 (9.13) mmHg
  Seated AOBP DBP, Mean (SD): 81.80 (13.73) mmHg
  Seated AOBP SBP change from baseline (CFB), Mean (SD): −4.15 (13.14) mmHg
  Seated AOBP SBP, Mean (SD): 142.80 (18.14) mmHg
12.5 mg QD, Week 4, Part 1
  LSM Δ with Placebo, seated AOBP DBP (MMRM): −1.96 mmHg
  Modelled (MMRM) LSM (SEM) change from baseline, seated AOBP DBP: −2.50 (1.60) mmHg
  Seated AOBP DBP change from baseline (CFB), Mean (SD): −1.80 (9.84) mmHg
  Seated AOBP DBP, Mean (SD): 81.20 (14.03) mmHg
  Seated AOBP SBP change from baseline (CFB), Mean (SD): −3.95 (15.74) mmHg
  Seated AOBP SBP, Mean (SD): 143.00 (18.03) mmHg
12.5 mg QD, Week 5, Part 1
  Seated AOBP DBP change from baseline (CFB), Mean (SD): 0.82 (14.46) mmHg
  Seated AOBP DBP, Mean (SD): 83.74 (14.32) mmHg
  Seated AOBP SBP change from baseline (CFB), Mean (SD): −3.53 (12.49) mmHg
  Seated AOBP SBP, Mean (SD): 144.21 (13.11) mmHg
12.5 mg QD, Week 6, Part 1
  Seated AOBP DBP change from baseline (CFB), Mean (SD): −4.17 (10.04) mmHg
  Seated AOBP DBP, Mean (SD): 79.06 (13.07) mmHg
  Seated AOBP SBP change from baseline (CFB), Mean (SD): −8.64 (16.52) mmHg
12.5 mg QD, Week 7, Part 1
  Seated AOBP DBP change from baseline (CFB), Mean (SD): −6.11 (12.05) mmHg
  Seated AOBP DBP, Mean (SD): 77.11 (12.74) mmHg
  Seated AOBP SBP change from baseline (CFB), Mean (SD): −11.08 (19.26) mmHg
  Seated AOBP SBP, Mean (SD): 136.56 (19.58) mmHg
12.5 mg QD, Week 8, Part 1
  LSM Δ from Placebo, change from baseline in seated AOBP SBP (MMRM): −1.53 mmHg
  LSM Δ with Placebo, seated AOBP DBP (MMRM): −2.12 mmHg
  Modelled (MMRM) LSM (SEM) change from baseline, seated AOBP DBP: −3.76 (2.02) mmHg
  Modelled (MMRM) LSM (SEM) change from baseline, seated AOBP SBP: −5.63 (3.16) mmHg
  Seated AOBP DBP change from baseline (CFB), Mean (SD): −1.78 (13.33) mmHg
  Seated AOBP DBP, Mean (SD): 81.44 (17.24) mmHg
  Seated AOBP SBP change from baseline (CFB), Mean (SD): −6.86 (19.85) mmHg
  Seated AOBP SBP, Mean (SD): 140.78 (22.01) mmHg
  Subjects with seated AOBP SBP/DBP ≤130/80 mmHg: No: 17 (73.9) n (%)
  Subjects with seated AOBP SBP/DBP ≤130/80 mmHg: Yes: 6 (26.1) n (%)
25 mg BID, BMI 25-30
  Difference from placebo in change in blood pressure: −1.1
25 mg BID, BMI >30
  Difference from placebo in change in blood pressure: −9.1
25 mg BID, Part 1, Week 8
  Proportion of subjects with AOBP ≤130/80 mmHg: 43.3%
25 mg BID, Thiazide No
  Difference from placebo in change in blood pressure: −4.7

Source: US20260053811A1, “METHODS OF TREATING HYPERTENSION IN OBESE SUBJECTS” (Mineralys Therapeutics, Inc., priority 2022, published 2026)
